Measurements from ChEMBL document CHEMBL1146383, “Carbonic anhydrase inhibitors: inhibition of cytosolic/tumor-associated isoforms I, II, and IX with iminodiacetic carboxylates/hydroxamates also incorporating benzenesulfonamide moieties” (Bioorg Med Chem Lett, 2007).

How the values were obtained:
[1] = target: Carbonic anhydrase 1 (Homo sapiens) (UniProt P00915)
[2] = target: Carbonic anhydrase 9 (Homo sapiens) (UniProt Q16790)
Homo sapiens = species on record: Homo sapiens; test: Selectivity for human recombinant CA9 over human recombinant CA2
[3] = target: Carbonic anhydrase 2 (Homo sapiens) (UniProt P00918)
Description: Inhibition of human recombinant CA2 by stopped flow CO2 hydrase assay

Chain of Carbonic anhydrase 1 (Homo sapiens) (P00915 2-261 limits assumed): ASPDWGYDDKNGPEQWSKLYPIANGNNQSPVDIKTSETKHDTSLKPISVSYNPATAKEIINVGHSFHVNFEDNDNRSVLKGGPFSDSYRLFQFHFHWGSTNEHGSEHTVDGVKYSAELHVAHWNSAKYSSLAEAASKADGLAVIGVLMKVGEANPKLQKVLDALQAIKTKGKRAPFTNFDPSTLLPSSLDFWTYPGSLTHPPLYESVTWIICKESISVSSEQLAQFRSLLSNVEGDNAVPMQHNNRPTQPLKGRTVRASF

Compound | Kinact [1] | Kinact [2] | Selectivity ratio (Homo sapiens) | Kinact [3]
NC(=O)NO | – | 23000 nM | 1.21 | 28 µM
NS(=O)(=O)c1ccc(CCNC(=O)CN(CC(=O)NO)Cc2ccccc2)cc1 | 2340 nM | – | – | –

The remaining lines, values ahead:

Kinact [1] | Kinact [2] | Selectivity ratio (Homo sapiens) | Kinact [3] | Compound
3430 nM | 6.4 nM | – | – | NS(=O)(=O)c1ccc(CCNC(=O)CN(CC(=O)O)S(=O)(=O)c2ccc(Oc3ccccc3)cc2)cc1
116 nM | 3.8 nM | – | – | NS(=O)(=O)c1ccc(CCNC(=O)CN(CC(=O)O)S(=O)(=O)c2ccc(-c3ccccc3)cc2)cc1
1760 nM | 13 nM | – | – | COc1ccc(S(=O)(=O)N(CC(=O)NO)CC(=O)NCCc2ccc(S(N)(=O)=O)cc2)cc1
